System: P12-Ichikawa
Test: cell viability relative to DMSO control; higher = less cytotoxic
Details: 48 h
How it was run: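 Viability was expressed as a per-plate percentage of DMSO wells, with cell-free wells as background. Leukemia cells (NOMO1 or SEM at 500 cells/well, P12-Ichikawa at 1000 cells/well) were adapted for at least four passages in each medium and seeded in 1536-well plates (5 μl). Library compounds in DMSO were pin-dosed over an 11-point threefold series from 47 μM to 0.79 nM, and CellTiter-Glo One luminescence was read after 48 h at 37°C.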

[1] = HPLM + 10% dialyzed FBS, 0.000781 µM
[2] = HPLM + 10% dialyzed FBS, 0.00234 µM
[3] = HPLM + 10% dialyzed FBS, 0.00702 µM
[4] = HPLM + 10% dialyzed FBS, 0.0211 µM
[5] = HPLM + 10% dialyzed FBS, 0.0632 µM
[6] = HPLM + 10% dialyzed FBS, 0.19 µM
[7] = HPLM + 10% dialyzed FBS, 0.569 µM
[8] = HPLM + 10% dialyzed FBS, 1.71 µM
[9] = HPLM + 10% dialyzed FBS, 5.12 µM
[10] = HPLM + 10% dialyzed FBS, 15.4 µM
[11] = HPLM + 10% dialyzed FBS, 46.1 µM
[12] = RPMI 5 mM glucose + 10% FBS, 0.000781 µM
[13] = RPMI 5 mM glucose + 10% FBS, 0.00234 µM
[14] = RPMI 5 mM glucose + 10% FBS, 0.00702 µM
[15] = RPMI 5 mM glucose + 10% FBS, 0.0211 µM
[16] = RPMI 5 mM glucose + 10% FBS, 0.0632 µM
[17] = RPMI 5 mM glucose + 10% FBS, 0.19 µM
[18] = RPMI 5 mM glucose + 10% FBS, 0.569 µM
[19] = RPMI 5 mM glucose + 10% FBS, 1.71 µM
[20] = RPMI 5 mM glucose + 10% FBS, 5.12 µM
[21] = RPMI 5 mM glucose + 10% FBS, 15.4 µM
[22] = RPMI 5 mM glucose + 10% FBS, 46.1 µM
[23] = RPMI 5 mM glucose + 10% dialyzed FBS, 0.000781 µM
[24] = RPMI 5 mM glucose + 10% dialyzed FBS, 0.00234 µM
[25] = RPMI 5 mM glucose + 10% dialyzed FBS, 0.00702 µM
[26] = RPMI 5 mM glucose + 10% dialyzed FBS, 0.0211 µM
[27] = RPMI 5 mM glucose + 10% dialyzed FBS, 0.0632 µM
[28] = RPMI 5 mM glucose + 10% dialyzed FBS, 0.19 µM
[29] = RPMI 5 mM glucose + 10% dialyzed FBS, 0.569 µM
[30] = RPMI 5 mM glucose + 10% dialyzed FBS, 1.71 µM
[31] = RPMI 5 mM glucose + 10% dialyzed FBS, 5.12 µM
[32] = RPMI 5 mM glucose + 10% dialyzed FBS, 15.4 µM
[33] = RPMI 5 mM glucose + 10% dialyzed FBS, 46.1 µM

| Compound | cell viability [1] [%] | cell viability [2] [%] | cell viability [3] [%] | cell viability [4] [%] | cell viability [5] [%] | cell viability [6] [%] | cell viability [7] [%] | cell viability [8] [%] | cell viability [9] [%] | cell viability [10] [%] | cell viability [11] [%] | cell viability [12] [%] | cell viability [13] [%] | cell viability [14] [%] | cell viability [15] [%] | cell viability [16] [%] | cell viability [17] [%] | cell viability [18] [%] | cell viability [19] [%] | cell viability [20] [%] | cell viability [21] [%] | cell viability [22] [%] | cell viability [23] [%] | cell viability [24] [%] | cell viability [25] [%] | cell viability [26] [%] | cell viability [27] [%] | cell viability [28] [%] | cell viability [29] [%] | cell viability [30] [%] | cell viability [31] [%] | cell viability [32] [%] | cell viability [33] [%] |
| --- | --- | --- | --- | --- | --- | --- | --- | --- | --- | --- | --- | --- | --- | --- | --- | --- | --- | --- | --- | --- | --- | --- | --- | --- | --- | --- | --- | --- | --- | --- | --- | --- | --- |
| CC(C)n1cnc2c(NCCc3ccc(O)cc3)nc(-c3csc4ccccc34)nc21 | 105 | 111 | 109 | 114 | 119 | 115 | 107 | 117 | 24.9 | 6.01 | 2.93 | 106 | 108 | 116 | 107 | 116 | 112 | 116 | 129 | 125 | 53.5 | 3.44 | 98.3 | 109 | 112 | 112 | 119 | 114 | 118 | 119 | 130 | 38.6 | 2.43 |
| CC(C)(C)OC(=O)Nc1ccc(-c2cc(C(=O)NCCCCCCC(=O)NO)no2)cc1 | 90.9 | 94.6 | 92.3 | 95.2 | 93.3 | 92.5 | 92.8 | 45.8 | 40.7 | 4.57 | 4.67 | 87.8 | 85.6 | 87 | 88.1 | 80.1 | 80 | 84.8 | 32.5 | 35.3 | 3.1 | 3.16 | 88.4 | 90.5 | 83.7 | 86.6 | 82.6 | 85.4 | 83 | 9.73 | 7.46 | 3.76 | 3.52 |
| OC[C@H]1OC(OC2=CC3=C(C(=C2)O)C(=O)\C(=C/O3)C4=CC=C(O)C=C4)[C@H](O)[C@@H](O)[C@@H]1O (some centres not stated) | 87.8 | 90.5 | 91.9 | 81.5 | 86.2 | 86.9 | 86.1 | 84.1 | 76 | 80.5 | 81.3 | 76.4 | 89.3 | 83.8 | 88.7 | 95.2 | 83.2 | 82.9 | 78 | 79 | 82.4 | 85.6 | 82.5 | 85.1 | 90.6 | 88.1 | 86 | 82.9 | 69.3 | 86.3 | 71.7 | 79.7 | 80 |
| N#C/C(=C1/Nc2ccccc2S1)c1ccnc(OCc2ccc(CN3CCOCC3)cc2)n1 | 106 | 105 | 110 | 112 | 110 | 119 | 109 | 110 | 105 | 40.1 | 37.1 | 103 | 105 | 116 | 109 | 111 | 109 | 118 | 109 | 102 | 28.8 | 33.1 | 101 | 106 | 106 | 93.1 | 105 | 104 | 108 | 107 | 102 | 44.5 | 38.6 |
| Cn1cnc([N+](=O)[O-])c1Sc1ncnc2nc[nH]c12 | 95.4 | 97 | 98.4 | 95.7 | 102 | 97.7 | 96.5 | 86 | 36.2 | 28.4 | 29.2 | 81.8 | 88.5 | 82.1 | 88.5 | 99.2 | 95.1 | 90.9 | 79.9 | 64.5 | 28.3 | 19.4 | 88.9 | 95.3 | 98.1 | 91 | 97.2 | 92.1 | 88.5 | 72.6 | 63.2 | 21.2 | 13.7 |
| NNc1nncc2ccccc12 | 112 | 121 | 127 | 122 | 126 | 131 | 121 | 134 | 129 | 124 | 130 | – | – | – | – | – | – | – | – | – | – | – | – | – | – | – | – | – | – | – | – | – | – |
| CCOCC(O)COc1ccc(NC(=O)CC[S+](C)C)cc1 (configuration not stated) | 87.3 | 82.5 | 87.9 | 96 | 91.9 | 88.1 | 98.5 | 98 | 93.7 | 99 | 95 | 88.2 | 90.5 | 93 | 97.9 | 91.3 | 95.9 | 95.9 | 97.3 | 94.4 | 104 | 92.3 | 85.3 | 74.7 | 88.7 | 88.8 | 82.7 | 91.3 | 89.5 | 84.6 | 85.6 | 88 | 78.8 |
| C1COC(NC(C2CC2)C2CC2)=N1 | 82.7 | 92 | 84.2 | 94.6 | 88.9 | 90.7 | 95.5 | 85.4 | 88.9 | 100 | 77.1 | 89.2 | 103 | 106 | 98.4 | 103 | 97.6 | 93.8 | 91.3 | 94.6 | 95.5 | 77.7 | 79.5 | 80.5 | 87.1 | 91.6 | 87.2 | 82.4 | 88.6 | 83.4 | 91.6 | 89.3 | 58.8 |
